In US20230140290A1, “SALICYLAMIDE DERIVATIVES AND RELATED METHODS OF MAKING” (THE BOARD OF REGENTS OF THE UNIVERSITY OF TEXAS SY, priority 2020, published 2023):
Read-outs that look alike come from different tables or passages of the source.

Legend:
[1] = test system: HAdV5-GFP; assay: Plaque assay (inhibition of HAdV plaque formation); assay type: cell-based, HAdV-5; details: for Selectivity index (SI): ratio of CC50 to IC50 in plaque assay; for inhibition at 10 µM: read-out: Plaque Assay (%) Inhibition (10 μM)
Method: Plaque Assay. […] When cells reached 80-90% confluency, they were infected with HAdV5-GFP (0.06 vp/cell) and rocked for 2 h at 37° C. After the incubation the inoculum was removed, and the cells were washed once with PBS.
Plaque Assay. Compounds were tested using low MOI infections (0.06 vp/cell) and at concentrations of 10 μM and in a dose-response assay ranging from 10 to 0.3 μM in a plaque assay. […] When cells reached 80-90% confluency, they were infected with HAdV5-GFP (0.06 vp/cell) and rocked for 2 h at 37° C. After the incubation the inoculum was removed, and the cells were washed once with PBS. […] The mixture also contained the compounds in concentrations ranging from 10 to 0.3 μM.

[2] = test system: A549 cells; assay: Cytotoxicity assay (AlamarBlue); details: read-out: CC50 (μM), cytotoxic concentration 50%; A549 cell line, 48 h
Method: Cytotoxicity Assay. The cytotoxicity of the compounds was analyzed by commercial kit AlamarBlue® (Invitrogen, Ref. DAL1025). A549 cells at a density of 5×10^3 cells per well in 96-well plates were seeded. […] Cells were then incubated at 37° C. for 48 h following the kit protocol. The cytotoxic concentration 50 (CC50) value was obtained using the statistical package GraphPad Prism. This assay was performed in duplicate.

[3] = read-out: Plaque Assay IC50 (μM), HAdV5-GFP, low MOI, 293β5 cell line

SMILES | Selectivity index (SI) [1] | inhibition at 10 µM [1] [%] | IC50 [1, 3] [µM] | CC50 [2] [µM] | IC50 ([1]; read-out: Plaque Assay IC50, HAdV5-GFP, low MOI, 293β5 cell line) [µM] | Plaque Assay (%) Inhibition (10 μM) [1]
CN(C)c1ccc(NC(=O)c2cc(Cl)ccc2O)c(Cl)c1 [Compound 89, 5-Chloro-N-(2-chloro-4-(dimethylamino)phenyl)-2-hydroxybenzamide] | 44.3 | 100 | 1.92 ± 0.23 | 85.1 ± 11.9 |  | 
O=C(Nc1ccc(NCc2cc(C(F)(F)F)cc(C(F)(F)F)c2)cc1Cl)c1cc(Cl)ccc1O [Compound 107, N-(4-((3,5-Bis(trifluoromethyl)benzyl)amino)-2-chlorophenyl)-5-chloro-2-hydroxybenzamide] | 82.9 | 100 | 1.12 ± 0.49 | 92.8 |  | 
O=C(Nc1cc(F)cc(C(F)(F)F)c1)c1ccccc1O [Compound 18, N-(3-Fluoro-5-(trifluoromethyl)phenyl)-2-hydroxybenzamide] |  | 98.7 ± 1.9 | 1.07 | 16.3 |  | 
O=C(Nc1ccc(NCc2cc(F)cc(Cl)c2)cc1Cl)c1cc(Cl)ccc1O [Compound 103, 5-Chloro-N-(2-chloro-4-((3-chloro-5-fluorobenzyl)amino)phenyl)-2-hydroxybenzamide] | 8.7 | 98.8 ± 0.6 | 1.28 ± 0.02 | 11.1 ± 0.7 |  | 
O=C(N[C@@H](Cc1ccccc1)C(=O)Nc1ccc([N+](=O)[O-])cc1Cl)c1cc(Cl)ccc1O [Compound 59, (S)-5-chloro-N-(1-((2-chloro-4-nitrophenyl)amino)-1-oxo-3-phenylpropan-2-yl)-2-hydroxybenzamide] |  | 100 |  | 15.2 |  | 
CC(C)(C)OC(=O)NCCNc1ccc(NC(=O)c2cc(Cl)ccc2O)c(Cl)c1 [Compound 122, tert-Butyl (2-((3-chloro-4-(5-chloro-2-hydroxybenzamido)phenyl)amino)ethyl)carbamate] | 9.0 | 100 | 2.78 | 25 ± 5.7 |  | 
CC(C)(C)OC(=O)N1CCC(Nc2ccc(NC(=O)c3cc(Cl)ccc3O)c(Cl)c2)CC1 [Compound 124, tert-Butyl 4-((3-chloro-4-(5-chloro-2-hydroxybenzamido)phenyl)amino)piperidine-1-carboxylate] | 82.6 | 88.9 ± 9 | 1.21 | 100 |  | 
O=C(NCc1ccc(Cl)cc1Cl)c1cc(Cl)ccc1O [Compound 32, 5-Chloro-N-(2,4-dichlorobenzyl)-2-hydroxybenzamide] |  | 99.2 ± 0.4 | 1.73 ± 0.51 | 30.9 ± 13.6 |  | 
COc1ccc(CNc2ccc(NC(=O)c3cc(Cl)ccc3O)c(Cl)c2)cc1 [Compound 100, 5-Chloro-N-(2-chloro-4-((4-methoxybenzyl)amino)phenyl)-2-hydroxybenzamide] | 22.4 | 100 | 3.61 ± 0.4 | 80.7 ± 8.2 |  | 
O=C(NCc1ccc(F)cc1Cl)c1cc(Cl)ccc1O [Compound 31, 5-Chloro-N-(2-chloro-4-fluorobenzyl)-2-hydroxybenzamide] | 12.1 | 97.1 ± 4.1 | 2.56 ± 0.06 | 30.9 ± 10.2 |  | 
Cc1ccc(O)c(C(=O)Nc2ccc(NC3CCCC3)cc2Cl)c1 [Compound 136, N-(2-Chloro-4-(cyclopentylamino)phenyl)-2-hydroxy-5-methylbenzamide] | 11.4 | 99.6 ± 0.5 | 2.72 | 30.9 ± 1.6 |  | 
O=C(CNC(=O)c1cc(Cl)ccc1O)Nc1ccc([N+](=O)[O-])cc1Cl [Compound 56, 5-Chloro-N-(2-((2-chloro-4-nitrophenyl)amino)-2-oxoethyl)-2-hydroxybenzamide] | 53.2 | 100 | 2.43 | 129 |  | 
O=C(Nc1ccc(NC2CCCC2)c(Cl)c1)c1cc(Cl)ccc1O [Compound 143, 5-Chloro-N-(3-chloro-4-(cyclopentylamino)phenyl)-2-hydroxybenzamide] | 20.1 | 100 | 0.84 | 16.9 ± 0.1 | 1.34 | 
O=C(NCc1ccc([N+](=O)[O-])cc1)c1cc(Cl)ccc1O [Compound 43, 5-Chloro-2-hydroxy-N-(4-nitrobenzyl)benzamide] | 26.7 | 99.5 ± 0.7 | 6.56 ± 0.47 | 175 ± 43.9 |  | 
CCCN(CCC)c1ccc(NC(=O)c2cc(Cl)ccc2O)c(Cl)c1 [Compound 91, 5-Chloro-N-(2-chloro-4-(dipropylamino)phenyl)-2-hydroxybenzamide] | 16.0 | 100 | 0.67 ± 0.03 | 10.7 ± 2.1 |  | 
C[C@H](NC(=O)c1cc(Cl)ccc1O)C(=O)Nc1ccc([N+](=O)[O-])cc1Cl [Compound 57, (S)-5-Chloro-N-(1-((2-chloro-4-nitrophenyl)amino)-1-oxopropan-2-yl)-2-hydroxybenzamide] | 26.0 | 97.4 ± 2.7 | 3.85 | 100 |  | 
O=C(Nc1ccc(N(CCCO)CCCO)cc1Cl)c1cc(Cl)ccc1O [Compound 121, N-(4-(Bis(3-hydroxypropyl)amino)-2-chlorophenyl)-5-chloro-2-hydroxybenzamide] |  | 35 ± 7.1 |  | 114 ± 9.2 |  | inactive
O=C(Nc1cc(F)cc(C(F)(F)F)c1)c1cccc(Cl)c1 [Compound 21, 3-Chloro-N-(3-fluoro-5-(trifluoromethyl)phenyl)benzamide] | 6.9 | 99.3 ± 0.9 | 5.61 ± 0.37 | 38.6 ± 1.7 |  | 
CC(C)[C@H](NC(=O)c1cc(Cl)ccc1O)C(=O)Nc1ccc(F)c(F)c1 [Compound 68, (S)-5-Chloro-N-(1-((3,4-difluorophenyl)amino)-3-methyl-1-oxobutan-2-yl)-2-hydroxybenzamide] | 32.1 | 98.3 ± 2.4 | 2.96 | 95 ± 18.7 |  | 
O=C(Nc1ccc(NCc2cc(Cl)cc(C(F)(F)F)c2)cc1Cl)c1cc(Cl)ccc1O [Compound 105, 5-Chloro-N-(2-chloro-4-((3-chloro-5-(trifluoromethyl)benzyl)amino)phenyl)-2-hydroxybenzamide] | 17.3 | 99.3 ± 1 | 1.79 ± 0.16 | 30.9 ± 0.8 |  | 
CS(=O)(=O)Nc1ccc(Cl)cc1C(=O)NCC(=O)Nc1ccc([N+](=O)[O-])cc1Cl [Compound 72, 5-Chloro-N-(2-((2-chloro-4-nitrophenyl)amino)-2-oxoethyl)-2-(methylsulfonamido)benzamide] | 14.6 | 99.6 ± 5.5 | 9.65 ± 0.01 | 141 ± 13.5 |  | 
O=C(NCc1cc(F)cc(C(F)(F)F)c1)c1cc(Cl)ccc1O [Compound 35, 5-Chloro-N-(3-fluoro-5-(trifluoromethyl)benzyl)-2-hydroxybenzamide] | 15.1 | 98.1 ± 1.4 | 2.4 ± 0.05 | 36.3 ± 7.9 |  | 
O=C(Nc1ccc(NCc2ccc(F)cc2)cc1Cl)c1cc(Cl)ccc1O [Compound 95, 5-Chloro-N-(2-chloro-4-((4-fluorobenzyl)amino)phenyl)-2-hydroxybenzamide] | 16.0 | 100 | 3.4 ± 0.54 | 54.4 ± 12.3 |  | 
Cc1ccc(O)c(C(=O)Nc2cc(F)cc(C(F)(F)F)c2)c1 [Compound 19, N-(3-Fluoro-5-(trifluoromethyl)phenyl)-2-hydroxy-5-methylbenzamide] |  | 98 ± 2.8 | 0.65 | 15.2 |  | 
CCNc1ccc(NC(=O)c2cc(Cl)ccc2O)c(Cl)c1 [Compound 79, 5-Chloro-N-(2-chloro-4-(ethylamino)phenyl)-2-hydroxybenzamide] | 13.9 | 100 | 2.18 | 30.2 ± 4.1 |  | 
O=C(Nc1ccc(NCCCO)cc1Cl)c1cc(Cl)ccc1O [Compound 120, 5-Chloro-N-(2-chloro-4-((3-hydroxypropyl)amino)phenyl)-2-hydroxybenzamide] |  | 36 ± 4.2 |  | 106 |  | inactive
O=C(Nc1ccc(NCc2ccc(C(F)(F)F)cc2)cc1Cl)c1cc(Cl)ccc1O [Compound 98, 5-Chloro-N-(2-chloro-4-((4-(trifluoromethyl)benzyl)amino)phenyl)-2-hydroxybenzamide] | 43.8 | 99.6 ± 0.6 | 1.43 ± 0.29 | 62.7 ± 6.1 |  | 
CS(=O)(=O)Nc1ccc(Cl)cc1C(=O)Nc1ccc(NC2CCCC2)cc1Cl [Compound 140, 5-Chloro-N-(2-chloro-4-(cyclopentylamino)phenyl)-2-(methylsulfonamido)benzamide] | 20.6 | 99.8 ± 0.4 | 1.72 | 35.4 ± 2.7 |  | 
O=C(Nc1ccc(NCc2ccc(Br)s2)cc1Cl)c1cc(Cl)ccc1O [Compound 113, N-(4-(((5-Bromothiophen-2-yl)methyl)amino)-2-chlorophenyl)-5-chloro-2-hydroxybenzamide] | 8.0 | 100 | 2.58 | 20.7 ± 4.6 |  | 
